Assay results as given in article PMC11674141, “Antimicrobial activity and synergistic effect of phage-encoded antimicrobial peptides with colistin and outer membrane permeabilizing agents against Acinetobacter baumannii” (PeerJ, 2024).
Values after ≈ are worked out from the molar mass of the structure shown. Read-outs that look alike come from different tables or passages of the source. Where no end group is shown, it is not given here.

What was measured:
A. baumannii ATCC19606 [1] = details: for MIC values of outer membrane permeabilizers and colistin: A. baumannii 19606
A. baumannii ATCC19606 [2] = assay: microbe, parasite or virus in culture; details: Acinetobacter baumannii, ATCC19606, read-out: MIC alone
Bacillus subtilis = details: B. subtilis, sensitive
Staphylococcus aureus = details: S. aureus, sensitive
HepG2 cell line = assay: MTT cell viability assay; format: cell-based, human; set-up: key to Mean cell viability (Mean 2; control = 100): % viability relative to control (control = 100%); details: mean of n = 3
Description: We aimed to determine the effects of peptides on cell viability and proliferation in the human hepatocellular carcinoma HepG2 cell line. The MTT assay was performed as described by [Muangpat et al. (2022)] with some modifications. The cells were cultured in Dulbecco’s Modified Eagle Medium (DMEM; Sigma-Aldrich, St. Louis, MO, USA), supplemented with 10% fetal bovine serum (FBS), 100 U/ml penicillin, and 100 μg/ml streptomycin at 37 °C in 5% CO^2 and 95% humidity. The cells were seeded into a 96-well plate at a density of 1 × 10^4 cells/well and allowed to adhere overnight. Then, the cells were exposed for 24 h to various concentrations of peptides. The control cells were cultured in complete DMEM medium containing 0.2% DMSO. After the 24-h incubation period, 20 μL of MTT solution (5 mg/mL in PBS) (Tokyo Chemical Industry Co., Ltd., Tokyo, Japan) was added to each well and incubated for another 2 h at 37 °C. The culture medium was then removed, and formazan crystals formed by viable cells were dissolved in 100 μL of DMSO before measuring the absorbance at 590 nm using a microplate spectrophotometer. The effect of the peptide on cell viability was calculated as a percentage of the control, which was arbitrarily assigned a value of 100% viability. The percentage of cell viability was calculated relative to the control group. The IC₅₀ of the peptides was defined as the concentration that caused a 50% reduction in cell viability compared with the control. The MTT assay was conducted in three independent experiments, each with triplicate wells per condition.

Pseudomonas aeruginosa = details: P. aeruginosa, sensitive
Klebsiella pneumoniae = details: K. pneumoniae, sensitive
Escherichia coli = details: E. coli, sensitive
[3] = tested on: twenty biofilm-forming A. baumannii strains; assay: Inhibition of biofilm formation (crystal violet); format: cell-based, Acinetobacter baumannii; set-up: Percent biofilm forming inhibition: concentration or dose not given beside the values
Description: We determined the ability of peptides to inhibit biofilm formation in twenty biofilm-forming strains using the method described by [Karyne et al. (2020)] with some modifications. Briefly, biofilm-forming strains of A. baumannii were adjusted to an equivalent of the 0.5 McFarland standard in 2× Luria Bertani (LB) broth supplemented with 20% glucose. Then, 50 µL of A. baumannii and 50 µL of peptides were added. […] The plates were incubated overnight at 37 °C. After 24 h of incubation, the culture medium was gently removed, and the wells were washed three times with phosphate-buffered saline. The adherent cells were fixed with absolute methanol for 10 min, stained with 0.4% crystal violet for 15 min, and washed three times with sterile distilled water, then air-dried. The plates were then filled with 250 µL of 33% acetic acid for 15 min. The absorbance at OD595 nm was determined. All experiments were performed in three independent assays, each repeated in triplicate, and the percentage of biofilm reduction was calculated based on treated wells vs. non-treated wells.

A. baumannii ATCC19606 [4] = details: ATCC19606
[5] = A. baumannii 19,606, microdilution, MHB, 37 °C overnight, triplicate samples
[6] = microdilution, triplicate samples

## ENMRNRKWNSTDTVMRRSRFQRYLR [PTTPAT04]
A. baumannii ATCC19606 [1]; [5]
  MIC values: 2,500 ug/ml
A. baumannii ATCC19606 [1]; A. baumannii ATCC19606
  MIC (ATCC19606): 2500 µg/mL

## KRQTLADKKERKKFHDGLMLNDNIR [PIN02]
A. baumannii ATCC19606 [1]; ATCC19606
  MIC (ATCC19606): > 5000 µg/mL
  MIC values: >5,000 ug/ml

## O=C(O)CC(O)C(=O)O (racemic) [DL-Malic acid, reference compound]
A. baumannii ATCC19606 [1]; [6]
  MIC values of outer membrane permeabilizers and colistin: 2500 µg/mL

## O=C(O)CC(O)(CC(=O)O)C(=O)O [Citric acid, reference compound]
A. baumannii ATCC19606 [1]; [6]
  MIC values of outer membrane permeabilizers and colistin: 5000 µg/mL
A. baumannii ATCC19606 [2]
  MIC: 5000 µg/mL (≈ 26 mM)

## CC[C@H](C)[C@H](NC(=O)[C@H](CCCNC(=N)N)NC(=O)[C@H](CC(N)=O)NC(=O)[C@@H](N)CCCCN)C(=O)N[C@H](C(=O)NCC(=O)N1CCC[C@H]1C(=O)N[C@H](C(=O)N[C@@H](Cc1ccc(O)cc1)C(=O)N[C@@H](C)C(=O)N[C@@H](CCCCN)C(=O)N[C@@H](CS)C(=O)N[C@@H](CC(N)=O)C(=O)N[C@@H](CCCNC(=N)N)C(=O)N[C@@H](CO)C(=O)N[C@@H](CCCNC(=N)N)C(=O)N[C@@H](CCC(N)=O)C(=O)N[C@@H](CCSC)C(=O)N[C@@H](C)C(=O)N[C@@H](CC(C)C)C(=O)N[C@@H](CCC(=O)O)C(=O)N[C@@H](CC(N)=O)C(=O)N[C@@H](CCSC)C(=O)N[C@@H](C)C(=O)N[C@@H](Cc1ccccc1)C(=O)O)C(C)C)[C@@H](C)CC [PTL02]
A. baumannii ATCC19606 [1]; [5]
  MIC values: 5,000 ug/ml
A. baumannii ATCC19606 [1]; A. baumannii ATCC19606
  MIC (ATCC19606): 5000 µg/mL (≈ 1.72 mM)

## LIAIQIAIKGMLNGWFTGVGFRRKR-NH2 [PE04-1(NH2)]
MDR-AB, XDR-AB; strain AB003, MDR-AB
  Minimum Inhibitory Concentration (MIC): 156.25 µg/mL
MDR-AB, XDR-AB; strain AB183, XDR-AB
  Minimum Inhibitory Concentration (MIC): 156.25 µg/mL
MDR-AB, XDR-AB; strain AB329, XDR-AB
  Minimum Inhibitory Concentration (MIC): 312.5 µg/mL
MDR-AB, XDR-AB; strain CR89, MDR-AB
  Minimum Inhibitory Concentration (MIC): 312.5 µg/mL
Bacillus subtilis
  Minimum Inhibitory Concentration (MIC): 19.531 µg/mL
Staphylococcus aureus
  Minimum Inhibitory Concentration (MIC): 39.06 µg/mL
A. baumannii ATCC19606 [1]; A. baumannii 19606, sensitive
  Minimum Inhibitory Concentration (MIC): 156.25 µg/mL
A. baumannii ATCC19606 [1]; [5]
  MIC values: 156.25 µg/mL
A. baumannii ATCC19606 [1]; A. baumannii ATCC19606
  MIC (ATCC19606): 156.25 µg/mL
HepG2 cell line; peptide concentration 25 (unit not given)
  Mean cell viability (Mean 2; control = 100): 94.88
HepG2 cell line; peptide concentration 50 (unit not given)
  Mean cell viability (Mean 2; control = 100): 86.43
HepG2 cell line; peptide concentration 156.25 (unit not given)
  Mean cell viability (Mean 2; control = 100): 81.93
HepG2 cell line; peptide concentration 300 (unit not given)
  Mean cell viability (Mean 2; control = 100): 76.66
HepG2 cell line; peptide concentration 600 (unit not given)
  Mean cell viability (Mean 2; control = 100): 49.65
HepG2 cell line; peptide concentration 800 (unit not given)
  Mean cell viability (Mean 2; control = 100): 28.83
Pseudomonas aeruginosa
  Minimum Inhibitory Concentration (MIC): 2500 µg/mL
Klebsiella pneumoniae
  Minimum Inhibitory Concentration (MIC): 625 µg/mL
Escherichia coli
  Minimum Inhibitory Concentration (MIC): 156.25 µg/mL
[3]; strain AB263, MDR-AB, 2014
  Percent biofilm forming inhibition: 89.6713%
[3]; twenty A. baumannii strains, peptide at MIC (312.5, 156.25, 156.25 µg/mL), 24 h, crystal violet OD595
  average percent inhibition of biofilm formation: 75.51%
A. baumannii ATCC19606 [4]
  FIC index, peptide plus colistin: 0.19

## EYRSSWTGAYGASVLNKYIGMGRNS [PSTF02]
A. baumannii ATCC19606 [1]; ATCC19606
  MIC (ATCC19606): > 5000 µg/mL
  MIC values: >5,000 ug/ml
